Reference: PMC8151276, “An Integrated Approach toward NanoBRET Tracers for Analysis of GPCR Ligand Engagement” (Molecules, 2021)

Tests used:
CHRM2 = target: T1, CHRM2 (Homo sapiens, UniProt P08172); assay: NanoBRET screen HiBiT-CHRM2 in HEK293; assay type: binding
T1 construct: purchased Promega (in-house HiBiT-GPCR construct library, NanoBRET)
T1 sequence (P08172 1-466): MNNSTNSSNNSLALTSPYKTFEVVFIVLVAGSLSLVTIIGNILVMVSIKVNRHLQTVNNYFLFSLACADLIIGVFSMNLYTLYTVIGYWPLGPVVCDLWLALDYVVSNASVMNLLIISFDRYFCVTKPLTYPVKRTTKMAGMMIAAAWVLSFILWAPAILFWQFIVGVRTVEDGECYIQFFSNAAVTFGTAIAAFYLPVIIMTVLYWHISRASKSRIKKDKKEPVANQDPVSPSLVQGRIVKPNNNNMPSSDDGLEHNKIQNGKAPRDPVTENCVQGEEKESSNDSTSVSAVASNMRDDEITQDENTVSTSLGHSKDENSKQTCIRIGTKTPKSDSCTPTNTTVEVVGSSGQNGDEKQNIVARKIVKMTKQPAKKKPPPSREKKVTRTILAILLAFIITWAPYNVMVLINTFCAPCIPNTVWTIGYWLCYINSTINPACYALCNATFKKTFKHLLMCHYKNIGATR
Method: (§1) Each tracer candidate was screened across the entire library of HiBiT-GPCR constructs using NanoBRET as the detection modality. As depicted in Figure 4A, the specificity of interactions was evaluated through decrease in BRET due to competitive displacement of a bound tracer by excess parental compound. Each tracer was analyzed for binding to each HiBiT-GPCR fusion in the absence and in the presence of competing parental compound. Briefly, HEK293 cells were transfected with HiBiT-GPCR constructs diluted into promoterless DNA to reduce expression and maximize translocation to the cell surface. Each tracer candidate was then screened at concentrations of 1 μM and 0.1 μM across cells expressing these fusions. Cells were treated for 1.5 h with tracer either alone or in the presence of 20 μM competing parental compound (i.e., control). BRET was measured upon addition of purified LgBiT and subsequent complementation with HiBiT genetically fused to a GPCR. The specificity of interactions was assessed through a decrease in BRET signal due to competitive displacement of the bound tracer. To further gauge the robustness of these interactions, the fold response over the control (i.e., BRETtracer/BRETcontrol) was calculated. We chose a 1.5-fold response, which translates to ≥7-fold signal over noise as the minimal threshold required to score an interaction as positive.
(§2) HiBiT-GPCR DNA constructs were diluted in 10 mM Tris pH 8 to a final concentration of 0.01 μg/μL, arrayed in 96-well plates and stored at −20 °C. For transfection, HEK293 cells were suspended in Opti-MEM (without phenol red) supplemented with 2% fetal bovine serum (Seradigm) and 100 units/mL penicillin–streptomycin (Gibco) at a final concentration of 220,000 cells/mL and dispensed into white 96-well plates at 90 μL/well. Subsequent transfections and screens were carried using an Agilent Bravo Automated Liquid Handling Platform. First, the 96-well HiBiT DNA arrays were diluted 25-fold in Opti-MEM (without serum or phenol red) to a final concentration of 0.0004 μg/μL and 20 μL of the diluted DNAs were transferred into new 96-well plates. Next, promoterless carrier DNA (1 μg/μL) was diluted 25-fold (0.04 μg/μL) and then dispensed into the diluted arrays at 20 μL/well. Following brief mixing, Viafect transfection reagent (Promega) diluted 16-fold into Opti-MEM was dispensed into the plates at 40 μL/well. After mixing by pipetting, plates were incubated for 10 min on the pipetting station deck. The DNA-transfection reagent complexes were then added to plates containing cells. To facilitate the screen, 10 μL of DNA-transfection reagent complexes were added in duplicates to the top 4 and bottom 4 rows, resulting in two identical 48-well arrays per plate. Plates with transfected cells were incubated for 18–20 h at 37 °C/5% CO2. A screen of each tracer across the entire library using two different concentrations requires duplicate plates of transfected cells. Depending on the number of tracers being screened, transfections can be scaled up using the same ratios. The next day, for each tracer, four 20× screening solutions in tracer dilution buffer (Promega) were prepared: two duplicates at final concentration of 20 μM and two duplicates at a final concentration of 2 μM. […] The four resulting solutions were diluted 4-fold in Opti-MEM without serum or phenol red to generate 5× solutions (5 µM and 0.5 µM tracer +/− 100 μM competing compound). To screen the library, a BioTek MultiFlo FX liquid dispenser was used to dispense 22.5 µL of tracer solution to the top 4 rows and 22.5 µL tracer + competing compound solution to the 4 bottom rows. Plates were briefly mixed on an orbital shaker and incubated for 1.5 h at room temperature. […] Plates were briefly mixed on an orbital shaker and incubated for 15 min to allow complementation.

MC5R = target: T2, MC5R (Homo sapiens, UniProt P33032); assay: NanoBRET screen HiBiT-MC5R in HEK293; assay type: binding
T2 construct: purchased Promega (in-house HiBiT-GPCR construct library, NanoBRET)
Method: as §1, §2

T2 sequence (P33032 whole entry): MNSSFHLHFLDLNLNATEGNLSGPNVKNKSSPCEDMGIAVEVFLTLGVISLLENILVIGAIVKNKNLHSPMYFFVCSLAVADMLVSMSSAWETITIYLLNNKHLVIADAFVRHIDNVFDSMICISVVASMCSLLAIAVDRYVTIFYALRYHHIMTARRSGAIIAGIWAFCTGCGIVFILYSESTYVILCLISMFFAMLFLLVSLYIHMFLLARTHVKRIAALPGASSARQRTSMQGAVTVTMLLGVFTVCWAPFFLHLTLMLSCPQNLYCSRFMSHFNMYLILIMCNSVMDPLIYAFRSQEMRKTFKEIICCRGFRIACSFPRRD

Row | SMILES | NanoBRET Fold Response (CHRM2; CHRM2, tracer 0.1μM) | NanoBRET Fold Response (CHRM2; CHRM2, tracer 1μM) | NanoBRET Fold Response (MC5R; MC5R, tracer 1μM) | NanoBRET Fold Response (MC5R; MC5R, tracer 0.1μM) | other results
1 | O=C(CCc1ccc2n1[B-](F)(F)[N+]1=C(c3ccc[nH]3)C=CC1=C2)NCc1ccc(C(=O)NCCOCCC(=O)N[C@@H]2CC[C@@]3(O)[C@H]4Cc5ccc(O)c6c5[C@@]3(CCN4CC3CC3)[C@H]2O6)cc1 [Naltrexone-3-NB590] | 0.57 | 1.32 | 1.04 |  | 
2 | CCCn1c(=O)c2[nH]c(-c3ccc(OCC(=O)NCCNC(=O)CCOCCNC(=O)c4ccc(CNC(=O)CCc5ccc6n5[B-](F)(F)[N+]5=C(c7ccc[nH]7)C=CC5=C6)cc4)cc3)nc2n(CCC)c1=O [XAC-3-NB590] | 1.28 | 2.12 | 0.98 | 1.02 | 
3 | CC(C)N(CC[C@H](c1ccccc1)c1cc(CCNC(=O)c2ccc(CNC(=O)CCc3ccc4n3[B-](F)(F)[N+]3=C(c5ccc[nH]5)C=CC3=C4)cc2)ccc1O)C(C)C [Tolterodine-BZ-NB590] | 3.84 | 2.14 | 1.02 | 1.02 | 
4 | COc1ccc2[nH]c(-c3ccc(CNC(=O)CCOCCOCCOCCOCCNC(=O)CCc4ccc5n4[B-](F)(F)[N+]4=C(c6ccc[nH]6)C=CC4=C5)cc3)c(CCNC(C)=O)c2n1 [AzomelatoninICO9-2-NB590] |  |  |  |  | NanoBRET Fold Response (CHRM2; 0.1μM tracer): 1.08; NanoBRET Fold Response (CHRM2; 1μM tracer): 0.86; NanoBRET Fold Response (MC5R; 0.1μM tracer): 0.94; NanoBRET Fold Response (MC5R; 1μM tracer): 0.97
5 | CN1CCN(C2=Nc3cc(Cl)ccc3N(CC(=O)NCCOCCOCCOCCOCCNC(=O)CCc3ccc4n3[B-](F)(F)[N+]3=C(c5ccc[nH]5)C=CC3=C4)c3ccccc32)CC1 [Clozapine-c-2-NB590] |  |  |  |  | NanoBRET Fold Response (CHRM2; CHRM2, 0.1μM tracer): 0.99; NanoBRET Fold Response (CHRM2; CHRM2, 1μM tracer): 0.87; NanoBRET Fold Response (MC5R; MC5R, 0.1μM tracer): 1.01; NanoBRET Fold Response (MC5R; MC5R, 1μM tracer): 1.06
6 | COc1ccccc1N1CCN(CCCCN2C(=O)c3ccc(CNC(=O)CCOCCNC(=O)c4ccc(CNC(=O)CCc5ccc6n5[B-](F)(F)[N+]5=C(c7ccc[nH]7)C=CC5=C6)cc4)cc3C2=O)CC1 [NAN-190-3-NB590] | 1.14 | 0.95 | 0.96 | 0.97 | 
7 | Cc1nc2n(c(=O)c1CCN1CCC(c3noc4cc(F)ccc34)CC1)CCCC2OC(=O)NCCOCCOCCOCCOCCNC(=O)CCc1ccc2n1[B-](F)(F)[N+]1=C(c3ccc[nH]3)C=CC1=C2 (stereo not drawn) [Risperidone-2-NB590] | 1.09 | 1.26 | 1.02 | 1.02 | 
8 | O=C(CCOCCOCCOCCOCCNC(=O)CCc1ccc2n1[B-](F)(F)[N+]1=C(c3ccc[nH]3)C=CC1=C2)NCCCN1CCN(C2=Nc3ccccc3Oc3ccc(Cl)cc32)CC1 [Loxapine-a-2-NB590] | 1.07 | 1.04 |  | 1.04 | 
9 | COc1ccccc1N1CCN(CCCCN2C(=O)c3ccc(CNC(=O)CCOCCOCCOCCOCCNC(=O)CCc4ccc5n4[B-](F)(F)[N+]4=C(c6ccc[nH]6)C=CC4=C5)cc3C2=O)CC1 [NAN-190-2-NB590] | 1.13 |  | 1.01 | 0.98 | 
10 | CC(C)N(CC[C@H](c1ccccc1)c1cc(CCNC(=O)CCOCCOCCOCCOCCNC(=O)CCc2ccc3n2[B-](F)(F)[N+]2=C(c4ccc[nH]4)C=CC2=C3)ccc1O)C(C)C [Tolterodine-2-NB590] | 2.98 | 1.51 | 0.91 |  | 
11 | N#CN=C(NCCCOc1cccc(CN2CCCCC2)c1)NCCNC(=O)CCOCCOCCOCCOCCNC(=O)CCc1ccc2n1[B-](F)(F)[N+]1=C(c3ccc[nH]3)C=CC1=C2 [Aminopotentidine-2-NB590] | 1.66 | 1.68 | 0.94 | 1.01 | 
12 | CCOC(=O)c1cc(C#N)c(N2CCC(C(=O)NS(=O)(=O)Cc3ccccc3/C=C/C(=O)NCCNC(=O)CCc3ccc4n3[B-](F)(F)[N+]3=C(c5ccc[nH]5)C=CC3=C4)CC2)nc1C [AZD1283-1-NB590] |  |  |  |  | NanoBRET Fold Response (CHRM2; CHRM2, 0.1μM): 1.05; NanoBRET Fold Response (CHRM2; CHRM2, 1μM): 0.96; NanoBRET Fold Response (MC5R; MC5R, 1μM): 0.99
13 | CN(C)CCC=C1c2ccccc2CCc2ccc(C(=O)NCCNC(=O)CCOCCOCCOCCOCCNC(=O)CCc3ccc4n3[B-](F)(F)[N+]3=C(c5ccc[nH]5)C=CC3=C4)cc21 [Amitriptyline-b-2-NB590] |  |  |  |  | NanoBRET Fold Response (CHRM2; tracer at 0.1μM, listed as amitriptyline-b-2-NB590): 2.20; NanoBRET Fold Response (CHRM2; tracer at 1μM, listed as amitriptyline-b-2-NB590): 1.55; NanoBRET Fold Response (MC5R; tracer at 0.1μM): 1.02; NanoBRET Fold Response (MC5R; tracer at 1μM): 1.00
14 | CN(C)CCC=C1c2ccccc2CCc2ccc(C(=O)NCCNC(=O)CCOCCOCCOCCOCCNC(=O)CCc3ccc4n3[B-](F)(F)[N+]3=C(c5ccc[nH]5)C=CC3=C4)cc21 [Amitriptyline-a-2-NB590] |  |  |  |  | NanoBRET Fold Response (CHRM2; tracer at 0.1μM): 1.10; NanoBRET Fold Response (CHRM2; tracer at 1μM): 0.98
15 | O=C(CCc1ccc2n1[B-](F)(F)[N+]1=C(c3ccc[nH]3)C=CC1=C2)NCCOCCOCCNC(=O)OCCOCCN1CCN(C2=Nc3ccccc3Sc3ccccc32)CC1 [Quetiapine-a-2-NB590] | 1.56 | 1.75 | 1.09 | 0.97 | 
16 | Cc1cc2c(s1)Nc1ccccc1N=C2N1CCN(CCCNC(=O)CCOCCOCCOCCOCCNC(=O)CCc2ccc3n2[B-](F)(F)[N+]2=C(c4ccc[nH]4)C=CC2=C3)CC1 [Olanzapine-a-2-NB590] |  | 1.30 | 1.04 | 0.99 | 
17 | CN1CCN(C2=Nc3cc(Cl)ccc3Nc3ccc(CNC(=O)CCOCCOCCOCCOCCNC(=O)CCc4ccc5n4[B-](F)(F)[N+]4=C(c6ccc[nH]6)C=CC4=C5)cc32)CC1 [Clozapine-b-2-NB590] |  |  |  |  | NanoBRET Fold Response (CHRM2; CHRM2, 0.1μM tracer): 1.48; NanoBRET Fold Response (CHRM2; CHRM2, 1μM tracer): 1.99; NanoBRET Fold Response (MC5R; MC5R, 0.1μM tracer): 1.05; NanoBRET Fold Response (MC5R; MC5R, 1μM tracer): 1.04
18 | COc1ccc2c(n1)c(CCNC(C)=O)cn2CCNC(=O)CCc1ccc2n1[B-](F)(F)[N+]1=C(c3ccc[nH]3)C=CC1=C2 [Azamelatonin-1-NB590] |  |  |  |  | NanoBRET Fold Response (CHRM2; 0.1μM tracer): 0.80; NanoBRET Fold Response (CHRM2; 1μM tracer): 1.35; NanoBRET Fold Response (MC5R; 0.1μM tracer): 1.01; NanoBRET Fold Response (MC5R; 1μM tracer): 1.04
19 | CN(CCC=C1c2ccccc2CCc2ccccc21)C(=O)CCOCCOCCOCCOCCNC(=O)CCc1ccc2n1[B-](F)(F)[N+]1=C(c3ccc[nH]3)C=CC1=C2 [Amitriptyline-e-2-NB590] |  |  |  |  | NanoBRET Fold Response (CHRM2; tracer at 1μM): 1.05
20 | O=C(CCc1ccc2n1[B-](F)(F)[N+]1=C(c3ccc[nH]3)C=CC1=C2)NCc1ccc(C(=O)NCCOCCOCCNCC(O)COc2cccc3ccccc23)cc1 (stereo not drawn) [Propranolol-3-NB590] |  |  |  |  | NanoBRET Fold Response (CHRM2; CHRM2, 0.1μM): 1.14; NanoBRET Fold Response (CHRM2; CHRM2, 1μM): 1.00; NanoBRET Fold Response (MC5R; MC5R, 0.1μM): 1.00; NanoBRET Fold Response (MC5R; MC5R, 1μM): 0.98
